Measured values published in patent US9765069B2, “Antimicrobial compounds” (OXFORD UNIVERSITY INNOVATION LIMITED, priority 2012, dated 2017).
Converted amounts (≈) assume the structure as drawn. Like-named read-outs stand apart in the source and are kept apart here.

Key:
[1] = test system: H3; test: MIC determination (bacteria), strain H3; type: cell-based, H. influenzae; conditions: haemophilus test medium
Protocol: (§1) MIC determination (bacteria); MICs were determined based on Clinical and Laboratory Standards Institute (CLSI) methodology (Methods for dilution antimicrobial susceptibility tests for bacteria that grow aerobically; Approved Standard—seventh edition. 2006, M7-A7, CLSI, Wayne Pa.) by a 2-fold broth dilution technique in Mueller Hinton (pH7.4 Biorad). For S. pneumoniae, the medium was supplemented with 2.5% laked horse blood. For H. influenzae, the medium was haemophilus test medium (H.T.M.). Overnight cultures were diluted to obtain the final inoculum of 10^5 cfu/well. Incubation was 37° C. overnight in ambient air. The MIC was defined as the lowest concentration which inhibited all visual growth and expressed in μg/ml. For each bacterial species, all of the molecules were tested in the same experiment in order to give a head-to-head comparison.

[2] = test system: human peripheral blood cells; test: in vitro toxicities human peripheral blood cells; type: cell-based
Source text: (§2) These properties can be determined according to techniques that are well known in the art.

[3] = test system: E2; test: MIC determination (bacteria), strain E2; type: cell-based, enterococcus; conditions: 2-fold broth dilution
Protocol: as §1

[4] = test system: P1; test: MIC determination (bacteria), strain P1; type: cell-based, S. pneumoniae; conditions: 2-fold broth dilution
Protocol: as §1

[5] = test system: P9; test: MIC determination (bacteria), strain P9; type: cell-based, S. pneumoniae; conditions: 2-fold broth dilution
Protocol: as §1

[6] = test system: Hek293 / PMBC versus S. aureus 2, MRSA in vivo; test: Selectivity index (LD50 Hek293/PMBC divided by MIC S. aureus 2); type: cell-based; conditions: lower LD50 of Hek293 and PMBC (converted to μg/mL) divided by MIC against S. aureus 2, MRSA in vivo
[7] = test system: human embryonic kidney 293 cells; test: in vitro toxicities against human embryonic kidney 293 cells; type: cell-based
Source text: as §2

[8] = test system: S26; test: MIC determination (bacteria), strain S26; type: cell-based, S. aureus; conditions: 2-fold broth dilution
Protocol: as §1

[9] = test system: S2 (S. aureus 2, MRSA in vivo); test: MIC determination (bacteria), strain S2; type: cell-based; conditions: 2-fold broth dilution
Protocol: as §1

[10] = test system: S1; test: MIC determination (bacteria), strain S1; type: cell-based, S. aureus; conditions: 2-fold broth dilution
Protocol: as §1

[11] = test system: S4; test: MIC determination (bacteria), strain S4; type: cell-based, S. aureus; conditions: 2-fold broth dilution
Protocol: as §1

[12] = aqueous solubility at pH 7.4; type: physicochemical; conditions: aqueous solubility at pH 7.4 (water with 2% DMSO)
Source text: as §2

[13] = test system: P9B; test: MIC determination (bacteria), strain P9B; type: cell-based, S. pneumoniae; conditions: 2-fold broth dilution
Protocol: as §1

[14] = test system: H4; test: MIC determination (bacteria), strain H4; type: cell-based, H. influenzae; conditions: haemophilus test medium; for MIC: Haemophilus influenzae
Protocol: as §1

[15] = test system: S. aureus membrane; test: In vitro activity in depolarization of S. aureus membrane; type: cell-based; conditions: read-out: DEP (IC50)
Source text: as §2

[16] = test system: E1; test: MIC determination (bacteria), strain E1; type: cell-based, enterococcus; conditions: 2-fold broth dilution
Protocol: as §1

[17] = test system: mammalian_red blood cell membrane; test: In vitro mammalian red blood cell membrane lysis activity; type: cell-based; conditions: Active or inactive at 100 μM
Source text: as §2

[18] = biological target: E. Coli RNAP (Escherichia coli, UniProt P0A8T7+P0A8V2); test: In vitro activity against E. Coli RNAP; type: biochemical
Source text: as §2

[19] = test system: all strains; test: MIC determination (bacteria), whole strain panel of Table 2; type: cell-based
Protocol: as §1

[20] = Streptococcus pneumoniae, Table 2
[21] = human embryonic kidney 293 cells

Chain of E. Coli RNAP (P0A8V2 whole entry): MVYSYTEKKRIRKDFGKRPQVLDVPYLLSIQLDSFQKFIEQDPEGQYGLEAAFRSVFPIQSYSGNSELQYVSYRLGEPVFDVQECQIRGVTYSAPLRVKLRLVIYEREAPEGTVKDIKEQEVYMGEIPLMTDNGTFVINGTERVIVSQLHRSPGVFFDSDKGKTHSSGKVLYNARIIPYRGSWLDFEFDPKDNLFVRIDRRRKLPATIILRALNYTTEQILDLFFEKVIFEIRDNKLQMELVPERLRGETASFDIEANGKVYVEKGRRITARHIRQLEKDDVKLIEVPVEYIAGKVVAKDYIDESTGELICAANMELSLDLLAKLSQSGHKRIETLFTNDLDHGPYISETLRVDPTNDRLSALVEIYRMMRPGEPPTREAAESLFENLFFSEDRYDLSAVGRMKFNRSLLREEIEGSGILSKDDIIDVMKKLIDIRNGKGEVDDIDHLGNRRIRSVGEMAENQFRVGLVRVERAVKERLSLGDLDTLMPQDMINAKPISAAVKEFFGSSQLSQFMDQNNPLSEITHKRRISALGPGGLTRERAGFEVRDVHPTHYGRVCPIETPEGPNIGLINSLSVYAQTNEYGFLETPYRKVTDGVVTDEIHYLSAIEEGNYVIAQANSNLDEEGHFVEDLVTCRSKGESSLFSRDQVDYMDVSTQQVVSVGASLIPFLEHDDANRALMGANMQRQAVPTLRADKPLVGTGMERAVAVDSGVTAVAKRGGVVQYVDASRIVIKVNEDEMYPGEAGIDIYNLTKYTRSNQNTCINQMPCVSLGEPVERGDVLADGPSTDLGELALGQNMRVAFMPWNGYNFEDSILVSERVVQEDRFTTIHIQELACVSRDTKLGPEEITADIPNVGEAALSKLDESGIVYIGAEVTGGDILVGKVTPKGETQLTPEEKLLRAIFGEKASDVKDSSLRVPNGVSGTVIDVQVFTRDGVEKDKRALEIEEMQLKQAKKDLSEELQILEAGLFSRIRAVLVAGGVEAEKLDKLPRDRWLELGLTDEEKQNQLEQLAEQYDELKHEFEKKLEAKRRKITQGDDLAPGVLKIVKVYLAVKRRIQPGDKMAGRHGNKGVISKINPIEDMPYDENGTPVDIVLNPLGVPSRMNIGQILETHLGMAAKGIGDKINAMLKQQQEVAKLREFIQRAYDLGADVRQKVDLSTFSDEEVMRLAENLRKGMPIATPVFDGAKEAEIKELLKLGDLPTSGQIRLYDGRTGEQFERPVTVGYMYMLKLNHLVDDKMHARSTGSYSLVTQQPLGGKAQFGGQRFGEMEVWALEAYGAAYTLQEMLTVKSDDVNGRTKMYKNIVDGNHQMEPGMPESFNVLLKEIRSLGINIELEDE
Chain of E. Coli RNAP (P0A8T7 whole entry): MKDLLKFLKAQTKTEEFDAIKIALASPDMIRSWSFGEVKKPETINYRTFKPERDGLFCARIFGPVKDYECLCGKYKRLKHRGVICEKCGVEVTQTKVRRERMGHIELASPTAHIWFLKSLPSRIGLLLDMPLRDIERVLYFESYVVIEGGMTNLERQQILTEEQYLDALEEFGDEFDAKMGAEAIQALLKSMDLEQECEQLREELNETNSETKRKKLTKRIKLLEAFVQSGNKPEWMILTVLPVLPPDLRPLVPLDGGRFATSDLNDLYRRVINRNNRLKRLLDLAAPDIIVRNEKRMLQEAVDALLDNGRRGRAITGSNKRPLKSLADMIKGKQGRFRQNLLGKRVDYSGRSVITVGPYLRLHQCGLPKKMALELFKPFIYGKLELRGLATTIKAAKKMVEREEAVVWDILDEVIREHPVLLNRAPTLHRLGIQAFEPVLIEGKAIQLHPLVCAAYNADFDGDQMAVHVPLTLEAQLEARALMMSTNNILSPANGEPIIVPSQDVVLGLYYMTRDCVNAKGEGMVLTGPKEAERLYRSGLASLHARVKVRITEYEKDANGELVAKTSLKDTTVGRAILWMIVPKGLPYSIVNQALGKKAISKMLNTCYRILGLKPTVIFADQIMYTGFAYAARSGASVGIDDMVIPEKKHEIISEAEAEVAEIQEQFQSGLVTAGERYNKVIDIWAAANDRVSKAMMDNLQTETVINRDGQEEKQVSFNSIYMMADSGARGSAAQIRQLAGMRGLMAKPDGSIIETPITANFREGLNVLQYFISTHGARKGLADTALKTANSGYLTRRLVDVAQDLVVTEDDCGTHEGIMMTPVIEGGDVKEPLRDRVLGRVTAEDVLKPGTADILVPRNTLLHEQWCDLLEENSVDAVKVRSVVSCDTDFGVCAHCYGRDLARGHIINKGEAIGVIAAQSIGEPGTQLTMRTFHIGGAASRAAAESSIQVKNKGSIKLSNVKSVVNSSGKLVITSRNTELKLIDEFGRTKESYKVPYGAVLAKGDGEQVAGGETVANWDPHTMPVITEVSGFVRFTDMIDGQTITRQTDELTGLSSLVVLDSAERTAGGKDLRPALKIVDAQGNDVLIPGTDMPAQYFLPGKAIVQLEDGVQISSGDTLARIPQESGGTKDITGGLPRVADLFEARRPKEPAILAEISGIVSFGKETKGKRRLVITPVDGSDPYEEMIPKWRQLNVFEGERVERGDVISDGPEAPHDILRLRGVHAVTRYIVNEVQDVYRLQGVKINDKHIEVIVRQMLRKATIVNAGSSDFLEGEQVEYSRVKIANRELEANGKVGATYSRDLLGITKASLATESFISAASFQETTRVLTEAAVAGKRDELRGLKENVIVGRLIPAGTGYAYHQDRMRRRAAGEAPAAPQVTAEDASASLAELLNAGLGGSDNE
Chain of E. Coli RNAP (P0A7Z4 whole entry partner): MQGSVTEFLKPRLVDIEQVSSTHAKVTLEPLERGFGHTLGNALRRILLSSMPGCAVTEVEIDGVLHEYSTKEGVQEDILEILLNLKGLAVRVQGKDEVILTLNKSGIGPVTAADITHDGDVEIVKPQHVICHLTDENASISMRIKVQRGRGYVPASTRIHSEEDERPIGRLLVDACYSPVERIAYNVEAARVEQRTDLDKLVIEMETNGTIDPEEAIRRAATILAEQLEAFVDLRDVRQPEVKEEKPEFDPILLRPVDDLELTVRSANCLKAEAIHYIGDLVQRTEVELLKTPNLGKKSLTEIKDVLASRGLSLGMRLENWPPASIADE
Chain of E. Coli RNAP (P0A800 whole entry partner): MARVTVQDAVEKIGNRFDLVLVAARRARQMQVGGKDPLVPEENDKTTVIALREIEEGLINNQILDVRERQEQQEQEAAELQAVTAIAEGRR

Cc1cc(Cl)ccc1OCCC/C(O)=C1\C(=O)CCN(C(=O)c2ccccc2)C1=O [19d]
MIC ([1]; Haemophilus influenzae, Table 2): 16 µg/mL (≈ 37.4 µM)
PMBC (LD50, μM) ([2]; human): 90.9 µM
MIC ([3]; Enterococcus, Table 2): 4 µg/mL (≈ 9.35 µM)
MIC [4, 20]: 2 µg/mL (≈ 4.67 µM)
MIC [5, 20]: 1 µg/mL (≈ 2.34 µM)
SI (Selectivity index) [6]: 9.7
Hek293 (LD50, μM) ([7]; human): 90.9 µM
MIC ([8]; Staphylococcus aureus, Table 2): 4 µg/mL (≈ 9.35 µM)
MIC ([9]; Staphylococcus aureus, MRSA, Table 2): 4 µg/mL (≈ 9.35 µM)
MIC ([10]; Staphylococcus aureus, Table 2): 2 µg/mL (≈ 4.67 µM)
MIC ([11]; Staphylococcus aureus, Table 2): 4 µg/mL (≈ 9.35 µM)
SOL [12]: >300 µM
MIC [13, 20]: 4 µg/mL (≈ 9.35 µM)
MIC ([14]; Table 2 and its footnote f): 8 µg/mL (≈ 18.7 µM)

CCCCCCCCCC(O)=C1C(=O)CCN(C(=O)c2ccccc2)C1=O [25a]
MIC H3 ([1]; Table 1): 16 µg/mL (≈ 43.1 µM)
PMBC (LD50, μM) ([2]; human peripheral blood cells): >90.9 µM
MIC E2 ([3]; Table 1): 4 µg/mL (≈ 10.8 µM)
IC50 [15]: 83.6 µM
MIC P1 ([4]; Table 1): 0.5 µg/mL (≈ 1.35 µM)
MIC E1 ([16]; Table 1): 2 µg/mL (≈ 5.38 µM)
MIC P9 ([5]; Table 1): 0.5 µg/mL (≈ 1.35 µM)
RBC membrane lysis activity (active/inactive) [17]: Inactive^d
IC50 [18]: > 100 µM
Hek293 (LD50, μM) [7, 21]: >90.9 µM
MIC S26 ([8]; Table 1): 4 µg/mL (≈ 10.8 µM)
MIC S2 ([9]; Table 1): 4 µg/mL (≈ 10.8 µM)
MIC S1 ([10]; Table 1): 2 µg/mL (≈ 5.38 µM)
MIC S4 ([11]; Table 1): 2 µg/mL (≈ 5.38 µM)
SOL [12]: >300 µM
MIC P9B ([13]; Table 1): 4 µg/mL (≈ 10.8 µM)
MIC H4 ([14]; Table 1): 8 µg/mL (≈ 21.5 µM)

CCCCCCCCCCCC(O)=C1C(=O)CCN(C(=O)c2ccccc2)C1=O [25b]
MIC H3 ([1]; Table 1): 8 µg/mL (≈ 20 µM)
PMBC (LD50, μM) ([2]; human peripheral blood cells): >90.9 µM
MIC E2 ([3]; Table 1): 0.5 µg/mL (≈ 1.25 µM)
IC50 [15]: 94.4 µM
MIC P1 ([4]; Table 1): 0.25 µg/mL (≈ 0.626 µM)
MIC E1 ([16]; Table 1): 0.25 µg/mL (≈ 0.626 µM)
MIC P9 ([5]; Table 1): 0.25 µg/mL (≈ 0.626 µM)
RBC membrane lysis activity (active/inactive) [17]: Inactive^d
IC50 [18]: 86 µM
Hek293 (LD50, μM) [7, 21]: >90.9 µM
MIC S26 ([8]; Table 1): 1 µg/mL (≈ 2.5 µM)
MIC S2 ([9]; Table 1): 0.5 µg/mL (≈ 1.25 µM)
MIC S1 ([10]; Table 1): 0.5 µg/mL (≈ 1.25 µM)
MIC S4 ([11]; Table 1): 0.5 µg/mL (≈ 1.25 µM)
SOL [12]: >300 µM
MIC P9B ([13]; Table 1): 1 µg/mL (≈ 2.5 µM)
MIC H4 ([14]; Table 1): 4 µg/mL (≈ 10 µM)

CCCCCCC(=O)N1CC(=O)C(=C(O)CC23CC4CC(CC(C4)C2)C3)C1=O [27i]
MIC H3 ([1]; Table 2): 2 µg/mL (≈ 5.16 µM)
PMBC (LD50, μM) ([2]; human peripheral blood cells): 30.3 µM
MIC E2 ([3]; Table 2): 0.25 µg/mL (≈ 0.645 µM)
IC50 [15]: > 100 µM
MIC P1 ([4]; Table 2): 0.12 µg/mL (≈ 0.31 µM)
MIC E1 ([16]; Table 2): 0.12 µg/mL (≈ 0.31 µM)
MIC P9 ([5]; Table 2): 0.12 µg/mL (≈ 0.31 µM)
RBCL (IC50, μM) [17]: Active
IC50 [18]: 3.1 µM
Hek293 (LD50, μM) [7, 21]: 10.1 µM
MIC S26 ([8]; Table 2): 0.5 µg/mL (≈ 1.29 µM)
MIC S2 ([9]; Table 2): 0.25 µg/mL (≈ 0.645 µM)
MIC S1 ([10]; Table 2): 0.25 µg/mL (≈ 0.645 µM)
MIC S4 ([11]; Table 2): 0.25 µg/mL (≈ 0.645 µM)
SOL [12]: 67 to 200 µM
MIC P9B ([13]; Table 2): 1 µg/mL (≈ 2.58 µM)
MIC H4 ([14]; Table 2 and its footnote f): 1 µg/mL (≈ 2.58 µM)

CCCC(=O)N1CC(=O)C(=C(O)CC23CC4CC(C)(CC(C)(C4)C2)C3)C1=O [27k]
MIC H3 ([1]; Table 2): 8 µg/mL (≈ 21.4 µM)
PMBC (LD50, μM) ([2]; human peripheral blood cells): 90.9 µM
MIC E2 ([3]; Table 2): 1 µg/mL (≈ 2.68 µM)
IC50 [15]: > 100 µM
MIC P1 ([4]; Table 2): 1 µg/mL (≈ 2.68 µM)
MIC E1 ([16]; Table 2): 0.5 µg/mL (≈ 1.34 µM)
MIC P9 ([5]; Table 2): 0.5 µg/mL (≈ 1.34 µM)
RBC membrane lysis activity (active/inactive) [17]: Active
IC50 [18]: 6.7 µM
Hek293 (LD50, μM) [7, 21]: 30.3 µM
MIC S26 ([8]; Table 2): 2 µg/mL (≈ 5.35 µM)
MIC S2 ([9]; Table 2): 2 µg/mL (≈ 5.35 µM)
MIC S1 ([10]; Table 2): 2 µg/mL (≈ 5.35 µM)
MIC S4 ([11]; Table 2): 2 µg/mL (≈ 5.35 µM)
SOL [12]: >300 µM
MIC P9B ([13]; Table 2): 1 µg/mL (≈ 2.68 µM)
MIC H4 ([14]; Table 2 and its footnote f): 4 µg/mL (≈ 10.7 µM)

CCC/C=C/C(=O)N1CC(=O)/C(=C(/O)CC2C[C@@H](C(C)=O)C2(C)C)C1=O (stereo partly shown) [27q]
MIC ([19]; read-out: MIC against the other strains): > 32 µg/mL
MIC ([14]; Table 2 and its footnote f): 32 µg/mL (≈ 88.5 µM)

CCCC(=O)N1CC(=O)/C(=C(/O)CCNS(=O)(=O)c2ccccc2)C1=O [28j]
MIC ([19]; all strains (S1, S26, S4, S2, E1, E2, P1, P9, P9B, H3, H4), read-out: MIC for all strains): > 32 µg/mL
